The source made the active and inactive calls. No cut-off for these calls is given here.
Key:
MDA-MB-231 [1] = assay: Antimetastatic activity against human MDA-MB-231 cells assessed as reduction in cell viability at 200 uM after 24 hrs by MTT assay relative to control; format: functional
Homo sapiens [2] = species on record: Homo sapiens; assay: Inhibition of ERK phosphorylation in human MDA-MB-231 cells at 6.25 uM after 24 hrs by Western blot analysis relative to control; format: cell-based
Homo sapiens [3] = species on record: Homo sapiens; assay: Inhibition of ERK phosphorylation in human MDA-MB-231 cells at 3.125 uM after 24 hrs by Western blot analysis relative to control; format: cell-based
Homo sapiens [4] = species on record: Homo sapiens; assay: Inhibition of ERK phosphorylation in human MDA-MB-231 cells at […] after 24 hrs by Western blot analysis relative to control; format: cell-based
MDA-MB-231 [5] = assay: Downregulation of VEGF protein expression in human MDA-MB-231 cells at 6.25 uM after 24 hrs by Western blot analysis relative to control; format: functional
HUVEC [6] = assay: Cytotoxicity against HUVEC assessed as reduction in cell viability after 24 hrs by MTT assay; format: cell-based; settings: human
HUVEC [7] = assay: Antiangiogenic activity in HUVEC assessed as inhibition of vascular endothelial tube formation at 3.125 uM after 24 hrs by matrigel assay relative to control; format: functional; settings: Homo sapiens
HUVEC [8] = assay: Cytotoxicity against HUVEC assessed as reduction in cell viability up to 6.25 uM after 24 hrs by MTT assay; format: cell-based; settings: human
MDA-MB-231 [9] = assay: Antimetastatic activity against human MDA-MB-231 cells assessed as reduction in cell viability at 50 uM after 24 hrs by MTT assay relative to control; format: functional
HUVEC [10] = assay: Cytotoxicity against HUVEC assessed as reduction in cell viability at 100 uM after 24 hrs by MTT assay; format: cell-based; settings: human
MDA-MB-231 [11] = assay: Antimetastatic activity against human MDA-MB-231 cells assessed as reduction in cell viability at <6.25 uM after 24 hrs by MTT assay; format: functional, cell-based
MDA-MB-231 [12] = assay: Antimetastatic activity against human MDA-MB-231 cells assessed as reduction in cell viability at 6.25 uM after 24 hrs by MTT assay relative to control; format: functional
MDA-MB-231 [13] = assay: Antimetastatic activity against human MDA-MB-231 cells assessed as cell viability at 3.125 uM after 24 hrs by MTT assay relative to control; format: functional; settings: MDA-MB-231, 24 h, read-out: Activity
[14] = molecular target: RAC-alpha serine/threonine-protein kinase (Homo sapiens) (UniProt P31749); assay: Inhibition of Akt phosphorylation in human MDA-MB-231 cells at 3.125 uM after 24 hrs by Western blot analysis relative to control; format: cell-based
MCF7 [15] = assay: Antimetastatic activity against human MCF7 cells assessed as cell viability at 3.125 uM after 24 hrs by MTT assay relative to control; format: functional; settings: MCF7, 24 h, read-out: Activity
HUVEC [16] = assay: Cytotoxicity against HUVEC assessed as reduction in cell viability at 12.50 to 100 uM after 24 hrs by MTT assay; format: cell-based; settings: human
MCF7 [17] = assay: Antimetastatic activity against human MCF7 cells assessed as cell viability at 100 uM after 24 hrs by MTT assay relative to control; format: functional; settings: MCF7, 24 h, read-out: Activity
MDA-MB-231 [18] = assay: Downregulation of VEGF protein expression in human MDA-MB-231 cells at 3.125 uM after 24 hrs by Western blot analysis relative to control; format: functional
HUVEC [19] = assay: Antiangiogenic activity in HUVEC assessed as inhibition of vascular endothelial tube formation at 6.25 uM after 24 hrs by matrigel assay relative to control; format: functional; settings: Homo sapiens
[20] = molecular target: RAC-alpha serine/threonine-protein kinase (Homo sapiens) (UniProt P31749); assay: Inhibition of Akt phosphorylation in human MDA-MB-231 cells at 6.25 uM after 24 hrs by Western blot analysis relative to control; format: cell-based
[21] = Cytotoxicity against HUVEC assessed as cell viability at 3.12 uM after 24 hrs by MTT assay; format: cell-based; settings: human, HUVEC cells; read-out: Activity
MDA-MB-231 [22] = assay: Antimetastatic activity against human MDA-MB-231 cells assessed as reduction in cell viability at 100 uM after 24 hrs by MTT assay relative to control; format: functional
MDA-MB-231 [23] = assay: Decrease in MMP9 mRNA expression in human MDA-MB-231 cells at 3.125 to 6.25 uM after 24 hrs by RT-PCR method; format: functional, cell-based
[24] = Cytotoxicity against HUVEC assessed as cell viability at 100 uM after 24 hrs by MTT assay; format: cell-based; settings: human, HUVEC cells; read-out: Activity

Chain of RAC-alpha serine/threonine-protein kinase (Homo sapiens) (P31749 whole entry): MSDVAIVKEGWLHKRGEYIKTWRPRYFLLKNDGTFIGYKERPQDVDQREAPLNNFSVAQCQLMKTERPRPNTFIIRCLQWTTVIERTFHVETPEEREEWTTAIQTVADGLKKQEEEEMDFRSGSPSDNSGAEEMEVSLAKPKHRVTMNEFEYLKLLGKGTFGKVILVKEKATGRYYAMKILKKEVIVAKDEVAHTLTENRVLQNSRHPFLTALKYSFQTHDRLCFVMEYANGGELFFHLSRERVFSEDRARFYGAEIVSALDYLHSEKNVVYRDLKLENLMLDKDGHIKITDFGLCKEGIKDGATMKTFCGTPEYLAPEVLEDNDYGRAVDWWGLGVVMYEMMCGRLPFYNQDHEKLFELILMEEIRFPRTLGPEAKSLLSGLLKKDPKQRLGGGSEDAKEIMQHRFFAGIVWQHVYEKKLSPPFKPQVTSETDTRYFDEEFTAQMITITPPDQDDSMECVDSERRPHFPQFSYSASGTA

Work on `COc1cc2oc(-c3ccc(O)cc3)cc(=O)c2c(O)c1OC` [CIRSIMARITIN] yielded an Activity (MDA-MB-231 [1]) of 52.73%, a fold change (FC) (Homo sapiens [2]) of 0.57 and a fold change (FC) (Homo sapiens [3]) of 0.8. The inhibition (Homo sapiens [4]) was 43%, the “fold change (FC)” value (MDA-MB-231 [5]) was 0.78 and the Activity (HUVEC [6]) was “Dose-dependent effect”. For the same compound, the inhibition at 3.125 µM (HUVEC [7]) was 18.1%, the Activity (HUVEC [8]) was “Non-Toxic” and the Activity (MDA-MB-231 [9]) was 78.74%. For the same compound, the Activity (HUVEC [10]) was 62.04%, the Activity (MDA-MB-231 [11]) was “inactive” and the Activity (MDA-MB-231 [12]) was 83.19%. The viability at 3.125 µM (MDA-MB-231 [13]) was 88.2%, the fold change (FC) [14] was 0.68 and the viability at 3.125 µM (MCF7 [15]) was 81.8%. For the same compound, the Activity (HUVEC [16]) was “Toxic”, the viability at 100 µM (MCF7 [17]) was 53.4% and the “fold change (FC)” value (MDA-MB-231 [18]) was 0.78. The inhibition at 6.25 µM (HUVEC [19]) was 32.2%, the fold change (FC) [20] was 0.66 and the viability at 24 h, 3.12 µM [21] was 89.9%. For the same compound, the Activity (MDA-MB-231 [22]) was 38.56%, the Activity (MDA-MB-231 [23]) was “Active” and the viability at 24 h, 100 µM [24] was 38%.

Work on `COc1cccc2c1C(=O)c1c(O)c3c(c(O)c1C2=O)C[C@@](O)(C(=O)CO)C[C@@H]3O[C@H]1C[C@H](N)[C@H](O)[C@H](C)O1` [DOXORUBICIN] yielded a viability at 24 h, 3.12 µM [21] of 14.2% and a viability at 24 h, 100 µM [24] of 11.7%.
